# According to patent US10508077B2 (FORMA Therapeutics, Inc., priority 2015, dated 2019):
# Assays:
# [1] = molecular target: T1, Full length human recombinant HDAC8 protein (Homo sapiens, UniProt Q9BY41); assay: In vitro histone deacetylase assay: enzymatic HDAC8 assay, electrophoretic mobility shift; assay type: biochemical; details: substrate RHKK(Ac)-NH2, 1 nM enzyme, compounds listed under IC50 range headings
# T1 construct: Full length human recombinant HDAC8 protein was expressed in baculoviral system; made in house
# T1 sequence (Q9BY41 1-377): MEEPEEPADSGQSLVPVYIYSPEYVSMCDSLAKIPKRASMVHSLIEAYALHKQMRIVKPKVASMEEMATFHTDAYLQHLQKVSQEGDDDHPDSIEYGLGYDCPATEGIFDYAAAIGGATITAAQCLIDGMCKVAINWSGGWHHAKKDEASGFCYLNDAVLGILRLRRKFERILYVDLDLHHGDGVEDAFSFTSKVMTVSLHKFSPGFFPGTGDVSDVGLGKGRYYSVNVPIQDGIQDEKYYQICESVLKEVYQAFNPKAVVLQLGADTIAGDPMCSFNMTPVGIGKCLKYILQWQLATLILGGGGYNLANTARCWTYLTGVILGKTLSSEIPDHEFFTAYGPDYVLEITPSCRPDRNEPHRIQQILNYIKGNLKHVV
# Procedure, shortened: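 Readout was microfluidic mobility-shift separation of deacetylated product from fluorescent RHKK(Ac)-NH2 substrate (2 µM), after reaction with 1 nM recombinant full-length human HDAC8 at 25 °C, pH 7.5, stopped with SDS. Twelve 3-fold-spaced concentrations tested; product/sum ratios normalized to controls and fitted with a 4-parameter model for IC50.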
# [2] = molecular target: T2, Recombinant N-terminal GST tag full-length human HDAC8 (Homo sapiens, UniProt Q9BY41); assay: HDAC8 probe binding assay, time resolved fluorescence (TRF); details: fluorescein labeled pan-HDAC inhibitor probe, 16 hours incubation, compounds listed under IC50 range headings
# T2 construct: Recombinant N-terminal GST tag full-length human HDAC8; purchased SignalChem H90-30G-1000; host or cells: Sf9 insect cells (baculovirus)
# T2 sequence (Q9BY41 1-377): T1 sequence (Q9BY41 1-377)
# Procedure: The HDAC8 probe binding assay was performed using a time resolved fluorescence (TRF) assay format. Recombinant N-terminal GST tag full-length human HDAC8 was expressed and purified from baculovirus in Sf9 insect cells (SignalChem, #H90-30G-1000), Each assay was performed in 1536 black well microplates (Corning, #3936) in a final volume of 4 μL in assay buffer containing 50 mM HEPES (pH 7.5), 50 mM KCl, 50 mM NaCl, 0.5 mM GSH (L-Glutathione reduced, Sigma #G4251), 0.03% BGG (0.22 μM filtered, Sigma, #G7516-25G), and 0.01% Triton X-100 (Sigma, #T9284-10L). 20 nL of 10-point, 3-fold serial dilution in DMSO was pre-dispensed into respective wells of 1536 assay plates for a final test concentration range of 25 μM to 1.3 nM respectively. The final concentration in the assay of HDAC8 and probe (a fluorescein labeled pan-HDAC inhibitor) was 2.5 nM and 1.5 nM respectively. 2 μL of 2× probe and 2× anti-GST Terbium (Cisbio, #61GSTXLB) was added to assay plates followed by 2 μL of 2× HDAC8. Plates were incubated for 16 hours at room temperature before time resolved fluorescence was read on the Envision (Excitation at 340 nm, and Emission at 485 nm and 535 nm, Perkin Elmer).
# Data from HDAC8 Assays were reported as percent inhibition (inh) compared with control wells based on the following equation: % inh=1−((FLU−AveLow)/(AveHigh−AveLow)) where FLU=measured time resolved fluorescence. AveLow=average time resolved fluorescence of no enzyme control (n=32). AveHigh=average time resolved fluorescence of DMSO control (n=32). IC50 values were determined by curve fitting of the standard 4 parameter logistic fitting algorithm included in the Activity Base software package: IDBS XE Designer Model205. Data is fitted using the Levenburg Marquardt algorithm.
smiles,measurement,setting,value
"O=C(/C=C/c1ccccc1NC(=O)[C@H]1C[C@@H]1c1ccccc1)NO [Example I-83, (1S,2S)-N-(2-((E)-3-(hydroxyamino)-3-oxoprop-1-en-1-yl)phenyl)-2-phenylcyclopropane-1-carboxamide]",IC50,[1],< 1000 nM
same,IC50,[2],≤ 1000 nM
"O=C(/C=C/c1ccccc1NC(=O)C1CCC2(CC1)CC2)NO [Example I-84, (E)-N-(2-(3-(hydroxyamino)-3-oxoprop-1-en-1-yl)phenyl)spiro[2.5]octane-6-carboxamide]",IC50,[1],< 1000 nM
same,IC50,[2],≤ 1000 nM
"CS(=O)(=O)c1nc(C(=O)Nc2ccccc2/C=C/C(=O)NO)c2ccccn12 [Example I-85, (E)-N-(2-(3-(hydroxyamino)-3-oxoprop-1-en-1-yl)phenyl)-3-(methylsulfonyl)imidazo[1,5-a]pyridine-1-carboxamide]",IC50,[1],< 1000 nM
same,IC50,[2],≤ 1000 nM
O=C(/C=C/c1ccccc1NCc1ccccn1)NO [Example I-89],IC50,[1],< 1000 nM
same,IC50,[2],≤ 1000 nM
"O=C(/C=C/c1ccccc1NCc1nccs1)NO [Example I-91, (E)-N-hydroxy-3-(2-((thiazol-2-ylmethyl)amino)phenyl)acrylamide]",IC50,[1],< 1000 nM
same,IC50,[2],≤ 1000 nM
O=C(/C=C/c1ccccc1NCc1cccnc1)NO [Example I-93],IC50,[1],< 1000 nM
same,IC50,[2],≤ 1000 nM
"Cc1cc(CNc2ccccc2/C=C/C(=O)NO)n(C)n1 [Example I-94, (E)-3-(2-(((1,3-dimethyl-1H-pyrazol-5-yl)methyl)amino)phenyl)-N-hydroxyacrylamide]",IC50,[1],< 1000 nM
same,IC50,[2],≤ 1000 nM
"CS(=O)(=O)c1ccc(CNc2ccccc2/C=C/C(=O)NO)cc1 [Example I-95, (E)-N-hydroxy-3-(2-((4-(methylsulfonyl)benzyl)amino)phenyl)acrylamide]",IC50,[1],< 1000 nM
same,IC50,[2],≤ 1000 nM
"O=C(/C=C/c1ccccc1NCc1ccc(-c2nnn[nH]2)cc1)NO [Example I-96, (E)-3-(2-((4-(1H-tetrazol-5-yl)benzyl)amino)phenyl)-N-hydroxyacrylamide]",IC50,[1],< 1000 nM
same,IC50,[2],≤ 1000 nM
"O=C(/C=C/c1ccccc1NCc1cccc(N2CCOCC2)c1)NO [Example I-97, (E)-N-hydroxy-3-(2-((3-morpholinobenzyl)amino)phenyl) acrylamide]",IC50,[1],< 1000 nM
same,IC50,[2],≤ 1000 nM
"O=C(/C=C/c1ccccc1NCc1ccnc(N2CCOCC2)c1)NO [Example I-98, (E)-N-hydroxy-3-(2-(((2-morpholinopyridin-4-yl)methyl)amino)phenyl)acrylamide]",IC50,[1],< 1000 nM
same,IC50,[2],≤ 1000 nM
"CS(=O)(=O)c1cccc(CNc2ccccc2/C=C/C(=O)NO)c1 [Example I-100, (E)-N-hydroxy-3-(2-((3-(methylsulfonyl)benzyl)amino)phenyl)acrylamide]",IC50,[1],< 1000 nM
same,IC50,[2],≤ 1000 nM
"O=C(/C=C/c1ccccc1NCc1cccc(CN2CCOCC2)c1)NO [Example I-101, (E)-N-hydroxy-3-(2-((3-(morpholinomethyl)benzyl)amino)phenyl)acrylamide]",IC50,[1],< 1000 nM
same,IC50,[2],≤ 1000 nM
"O=C(/C=C/c1ccccc1NCc1ccc2nccn2c1)NO [Example I-103, (E)-N-hydroxy-3-(2-((imidazo[1,2-a]pyridin-6-ylmethyl)amino)phenyl)acrylamide]",IC50,[1],< 1000 nM
same,IC50,[2],≤ 1000 nM
O=C(/C=C/c1ccccc1NCc1c[nH]nc1-c1ccc(C(F)(F)F)cc1)NO [Example I-104],IC50,[1],< 1000 nM
same,IC50,[2],≤ 1000 nM
"NC(=O)CCc1cccc(C(=O)Nc2ccccc2/C=C/C(=O)NO)c1 [Example I-107, (E)-3-(3-amino-3-oxopropyl)-N-(2-(3-(hydroxyamino)-3-oxoprop-1-en-1-yl)phenyl)benzamide]",IC50,[1],< 1000 nM
same,IC50,[2],≤ 1000 nM
"O=C(/C=C/c1ccccc1N1CCC2(CCNC2)C1)NO (stereo not drawn) [Example I-113, (E)-3-(2-(2,7-diazaspiro[4.4]nonan-2-yl)phenyl)-N-hydroxyacrylamide 2,2,2-trifluoroacetate]",IC50,[1],< 1000 nM
same,IC50,[2],≤ 1000 nM
"O=C(/C=C/c1ccccc1N1CCC2(CCNCC2)C1)NO [Example I-115, (E)-3-(2-(2,8-diazaspiro[4.5]decan-2-yl)phenyl)-N-hydroxyacrylamide 2,2,2-trifluoroacetate]",IC50,[1],< 1000 nM
same,IC50,[2],≤ 1000 nM
"O=C(/C=C/c1ccncc1NC(=O)c1cccc(C(F)(F)F)c1)NO [Example I-123, (E)-N-(4-(3-(hydroxyamino)-3-oxoprop-1-enyl)pyridin-3-yl)-3-(trifluoromethyl)benzamide]",IC50,[1],< 1000 nM
same,IC50,[2],≤ 1000 nM
"Cc1cc(C(=O)NC2CCN(c3ccccc3/C=C/C(=O)NO)CC2)n[nH]1 [Example I-134, (E)-N-(1-(2-(3-(hydroxyamino)-3-oxoprop-1-en-1-yl)phenyl)piperidin-4-yl)-5-methyl-1H-pyrazole-3-carboxamide]",IC50,[1],< 1000 nM
same,IC50,[2],≤ 1000 nM
O=C(/C=C/c1ccccc1N1CCC(NC(=O)c2ccnn2C(F)F)CC1)NO [Example I-148],IC50,[1],< 1000 nM
same,IC50,[2],≤ 1000 nM
"O=C(/C=C/c1ccccc1N1CCC(NC(=O)c2ccc3[nH]ccc3c2)CC1)NO [Example I-153, (E)-N-(1-(2-(3-(hydroxyamino)-3-oxoprop-1-en-1-yl)phenyl)piperidin-4-yl)-1H-indole-5-carboxamide]",IC50,[1],< 1000 nM
same,IC50,[2],≤ 1000 nM
"O=C(/C=C/c1ccccc1N1CCN(Cc2nccs2)CC1)NO [Example I-170, (E)-N-hydroxy-3-(2-(4-(thiazol-2-ylmethyl)piperazin-1-yl)phenyl)acrylamide]",IC50,[1],< 1000 nM
same,IC50,[2],≤ 1000 nM
"O=C(/C=C/c1ccccc1N1CCN(Cc2cccnc2)CC1)NO [Example I-179, (E)-N-hydroxy-3-(2-(4-(pyridin-3-ylmethyl)piperazin-1-yl)phenyl)acrylamide]",IC50,[1],< 1000 nM
same,IC50,[2],≤ 1000 nM
"Cn1cncc1CN1CCN(c2ccccc2/C=C/C(=O)NO)CC1 [Example I-180, (E)-N-hydroxy-3-(2-(4-((1-methyl-1H-imidazol-5-yl)methyl)piperazin-1-yl)phenyl)acrylamide]",IC50,[1],< 1000 nM
same,IC50,[2],≤ 1000 nM
"O=C(/C=C/c1ccccc1N1CCN(Cc2ccc(N3CCCC3)nc2)CC1)NO [Example I-182, (E)-N-hydroxy-3-(2-(4-((6-(pyrrolidin-1-yl)pyridin-3-yl)methyl)piperazin-1-yl)phenyl)acrylamide]",IC50,[1],< 1000 nM
same,IC50,[2],≤ 1000 nM
"Cc1cc(CN2CCN(c3ccccc3/C=C/C(=O)NO)CC2)n(C)n1 [Example I-183, (E)-3-(2-(4-((1,3-dimethyl-1H-pyrazol-5-yl)methyl)piperazin-1-yl)phenyl)-N-hydroxyacrylamide]",IC50,[1],< 1000 nM
same,IC50,[2],≤ 1000 nM
"Cc1ncsc1C(=O)N1CCN(c2ccccc2/C=C/C(=O)NO)CC1 [Example I-200, (E)-N-hydroxy-3-(2-(4-(4-methylthiazole-5-carbonyl)piperazin-1-yl)phenyl)acrylamide]",IC50,[1],< 1000 nM
same,IC50,[2],≤ 1000 nM
"O=C(/C=C/c1ccccc1N1CCN(C(=O)c2cnn3c2OCCC3)CC1)NO [Example I-204, (E)-3-(2-(4-(6,7-dihydro-5H-pyrazolo[5,1-b][1,3]oxazine-3-carbonyl)piperazin-1-yl)phenyl)-N-hydroxyacrylamide]",IC50,[1],< 1000 nM
same,IC50,[2],≤ 1000 nM
O=C(/C=C/c1ccccc1N1CCN(C(=O)c2cn[nH]c2)CC1)NO [Example I-206],IC50,[1],< 1000 nM
same,IC50,[2],≤ 1000 nM
